Here are results for two compounds from the NIST ThermoML archive (doi:10.1016/j.fluid.2012.01.029).

± gives the expanded uncertainty stated by the source.

The conditions of the data set: 293.15 K; 101.33 kPa; Liquid; Vibrating tube method.

`NCCO` [2-aminoethan-1-ol]: the mass density is reported as 1017.9 ± 0.3 kg/m3.

As to `CN(CCO)CCO` [N-methyldiethanolamine], the mass density is 1037.7 ± 0.3 kg/m3.

The mass density is the mass of a sample divided by its volume.
